“Also recorded” adds a separate entry of the source.
Test system: human PBMCs co-cultured with H1299 cells
Experiment: H1299 / PBMC co-culture cytokine assay
Type: cell-based
Conditions: 4 days, stimulated PBMCs + H1299, FIG. 6
Experimental: The ability of Compound 1 to cooperate with checkpoint blockade to further boost antitumor responses was evaluated. H1299 lung cancer cells were co-cultured with stimulated human PBMCs treated with Compound 1, anti-human programmed cell death (PD)-1 antibody retifanlimab or the combination, and production of proinflammatory cytokines was assessed in two different experiments (FIG. 6).
H1299 cells were co-cultured with human PBMCs, each at 4 or 16×10^4 cells/mL in RPMI containing 10% FBS, 100 U/mL of penicillin-streptomycin (ThermoFisher Scientific; #15140-122) and 1× beta-mercaptoethanol (ThermoFisher Scientific; #21985-023). Compound 1 or retifanlimab were added as single agents or in combination to the cells. Anti-CD3 (BD Biosciences #555336), anti-CD28 (BD Biosciences #555725) or SEA (Toxin Technology, Sarasota, Fla.; #AT101red) were added at a final concentration of 1 μg/mL, 0.5 μg/mL or 100 ng/mL, respectively, to stimulate cell growth. Cultures were incubated at 37° C. in 5% CO2 incubator for 4 days. The supernatant was collected for cytokine analysis using a multiplex assay system (custom human ProcartaPlex Luminex kit, ThermoFisher Scientific; #PPX-15-MXRWE6P).

With “retifanlimab: humanized, IgG4 monoclonal antibody that binds to human PD-1; heavy chain SEQ ID NO:2, light chain SEQ ID NO:3” the proinflammatory cytokine production was “induced these cytokines in a subset of donors; also recorded: induction of proinflammatory cytokines”.
